In patent US9809822B2 (priority 2013, dated 2017):
Where “and” joins values, the source holds several entries; their conditions need not be identical. Equal values may be shown once.

Columns and labels:
[1] = C14 hydroxyl replaced by electron withdrawing group; background statement; cited from earlier work
cancer cells = conditions: background statement; cited from earlier work
[2] = background statement; cited from earlier work
[3] = parameters: species or system female nude mice; conditions: female, nude, mouse, in vivo
From the text: BxPC-3 cells in logarithmic growth phase were used.
Samples A and B in 2.2.2 were used.

[4] = tested on: BxPC-3 pancreatic cancer cells; assay: Inhibition of triptolide-AS1411 conjugate on the growth of pancreatic cancer cells in vitro (absorbance, MTT); type: cell-based, human; conditions: for Absorbance (24 h) / Absorbance (48 h): replicate wells
Protocol: 5 pancreatic cancer cell lines (MiaPaCa-2, PANC-1, BxPC-3, SW1990 and ASPC-1) used in the experiments were all purchased from Shanghai Cell Bank.
(§1) Fetal bovine serum and two antibiotics were added into the above media so as to form a final culture medium with a final content of 10% and 1%. Cells were incubated in an incubator at 37° C. and with 5% CO2.
Pancreatic cancer cells (MiaPaCa-2, PANC-1, BxPC-3, SW1990 and ASPC-1) were uniformly seeded into a 96-well plate with a low density (1×10^3˜1×10^4, depending on the specific cell lines, and the conditions were referred to Shanghai Cell Bank). After placed in incubator for adhering overnight, the used medium was replaced by a serum free medium containing drug. […] The cells were then incubated in the incubator at 37° C. and with 5% CO2. Cell activities were measured by MTT. The operation was performed for 4 times.

[5] = tested on: acute lymphoblastic leukemia T-cells (CCRF-CEM); assay: Inhibition of triptolide-SGC8C conjugate on the growth of cancer cells in vitro (absorbance, MTT); type: cell-based; conditions: replicates, listed as TP
Protocol: Cell lines: acute lymphoblastic leukemia T-cells (CCRF-CEM) and hepatocyte (L-02).
as §1, with “CO2. Growth conditions of the cells were constantly observed and cell counting was performed, and all the experiments were carried out on cells in logarithmic growth phase.” for “CO2.”
Study on anti-cancer activity: acute lymphoblastic leukemia T-cells (CCRF-CEM) and liver cells (L-02) were uniformly seeded into a 96-well plate in a low density (1×10^3˜1×10^4, depending on the specific cell lines) and were placed in an incubator overnight for adhering, the used medium was replaced by a serum free medium containing drug. […] The cells were then cultured in the incubator at 37° C. and with 5% CO2. Cell activities were measured by MTT. The operations were repeated for 3 times.

| SMILES | cytotoxicity compared with TP [1] | concentration that effectively inhibits the growth of the cancer cells (cancer cells) | solubility in water [2] | time after administration at which drug concentration in blood reaches a maximum [3] | Absorbance (24 h) ([4]; 25 nM) | Absorbance (48 h) ([4]; 25 nM) | Absorbance (24 h) ([4]; 50 nM) | Absorbance (48 h) ([4]; 50 nM) | Absorbance (24 h) ([4]; 100 nM) | Absorbance (48 h) ([4]; 100 nM) | Absorbance (24 h) ([4]; 200 nM) | Absorbance (48 h) ([4]; 200 nM) | effect on proliferation of pancreatic cancer cells ([4]; compared with blank references, concentration range 50 nM-200 nM, time and dose dependent) | Absorbance (CCRF-CEM) ([5]; 25 nM) | Absorbance (CCRF-CEM) ([5]; 50 nM) | Absorbance (CCRF-CEM) ([5]; 100 nM) | Absorbance (CCRF-CEM) ([5]; 200 nM) |
| --- | --- | --- | --- | --- | --- | --- | --- | --- | --- | --- | --- | --- | --- | --- | --- | --- | --- |
| CC(C)[C@]12O[C@H]1[C@@H]1O[C@]13[C@]1(O[C@H]1C[C@H]1C4=C(CC[C@@]13C)C(=O)OC4)[C@@H]2F [Compound M-1] | greater than TP |  |  |  |  |  |  |  |  |  |  |  |  |  |  |  |  |
| CC(C)[C@]12O[C@H]1[C@@H]1O[C@]13[C@]1(O[C@H]1C[C@H]1C4=C(CC[C@@]13C)C(=O)OC4)[C@H]2F [Compound M-2] | greater than TP |  |  |  |  |  |  |  |  |  |  |  |  |  |  |  |  |
| CC(C)[C@]12O[C@H]1[C@@H]1O[C@]13[C@]1(O[C@H]1C[C@H]1C4=C(CC[C@@]13C)C(=O)OC4)[C@@H]2O [Triptolide] |  | 2 to 10 ng/mL | not soluble in water | 0.5 h | 0.745 and 0.764 and 0.718 and 0.690 | 0.296 and 0.322 (2×) and 0.317 | 0.436 and 0.430 and 0.454 and 0.424 | 0.219 and 0.223 and 0.231 and 0.220 | 0.393 and 0.397 and 0.403 and 0.364 | 0.211 and 0.206 and 0.223 and 0.212 | 0.365 and 0.366 and 0.402 and 0.399 | 0.200 and 0.218 and 0.222 and 0.213 | significantly inhibit | 0.7555 and 0.7582 and 0.755 | 0.5502 and 0.5441 and 0.5447 | 0.2608 and 0.2717 and 0.2802 | 0.1902 (2×) and 0.18 |
